# Assay results: ChEMBL document CHEMBL1201862, “PubChem BioAssay data set” (2004)
#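 Growth conditions: 96-well plates. Treatment: test compound, 48 hours, 5 concentrations. Analysis: linear interpolation between bracketing concentrations; unreached endpoints set to highest concentration. GI50 is the concentration that inhibits growth by half.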 Active and inactive are the calls of the source. No stated cut-off is given here; in the data, active = GI50 up to about 1.1 µM and inactive = higher.
# Legend:
# Assay in all cases: NCI tumour cell line growth inhibition, 48 h
# [1] = test system: Hs-578T
# [2] = test system: CAKI-1
# [3] = test system: SK-OV-3
# [4] = test system: SNB-75
# [5] = test system: TK-10
# [6] = test system: SF-295
# [7] = test system: EKVX
# [8] = test system: KM12
# [9] = test system: HCT-15
# [10] = test system: IGROV-1
# [11] = test system: OVCAR-3
# [12] = test system: OVCAR-5
# [13] = test system: MCF7
# [14] = test system: OVCAR-8
# [15] = test system: HCC 2998
# [16] = test system: A549
# [17] = test system: HT-29
# [18] = test system: BT-549
# [19] = test system: SF-268
# [20] = test system: 786-0
# [21] = test system: SF-539
# [22] = test system: Malme-3M
# [23] = test system: SN12C
# [24] = test system: PC-3
# [25] = test system: HCT-116
# [26] = test system: K562
# [27] = test system: MDA-MB-231
# [28] = test system: CCRF-CEM
# [29] = test system: DU-145
# [30] = test system: UACC-257
# [31] = test system: NCI-H460
# [32] = test system: NCI-H522
# [33] = test system: UACC-62
# [34] = test system: SK-MEL-5
# [35] = test system: A498
# [36] = test system: NCI-H23
# [37] = test system: T47D
# [38] = test system: UO-31
# [39] = test system: SNB-19
# [40] = test system: RXF 393
# [41] = test system: SK-MEL-28
# [42] = test system: NCI/ADR-RES
# [43] = test system: ACHN
# [44] = test system: SK-MEL-2
# [45] = test system: U-251
# [46] = test system: HOP-62
# [47] = test system: SW-620
# [48] = test system: MOLT-4
# [49] = test system: MDA-MB-435
# [50] = test system: NCI-H226
# [51] = test system: LOX IMVI
# [52] = test system: HOP-92
# [53] = test system: COLO 205
# [54] = test system: OVCAR-4
# [55] = test system: MDA-N
# [56] = test system: M14
# [57] = test system: SR
# [58] = test system: RPMI-8226
smiles,measurement,setting,value
Nc1nc(Cl)c(N)c(NCC2(CO)CCC(OCc3ccccc3)C2)n1 (stereo unspecified),GI50,[1],> 100 µM (inactive)
same,GI50,[2],> 100 µM (inactive)
same,GI50,[3],> 100 µM (inactive)
same,GI50,[4],> 100 µM (inactive)
same,GI50,[5],> 100 µM (inactive)
same,GI50,[6],4.9 µM (inactive)
same,GI50,[7],0.931 µM (active)
same,GI50,[8],> 100 µM (inactive)
same,GI50,[9],61.9 µM
same,GI50,[10],> 100 µM (inactive)
same,GI50,[11],> 100 µM (inactive)
same,GI50,[12],> 100 µM (inactive)
same,GI50,[13],47.8 µM (inactive)
same,GI50,[14],> 100 µM (inactive)
same,GI50,[15],> 100 µM (inactive)
same,GI50,[16],> 100 µM (inactive)
same,GI50,[17],> 100 µM (inactive)
same,GI50,[18],61.9 µM (inactive)
same,GI50,[19],> 100 µM (inactive)
same,GI50,[20],> 100 µM (inactive)
same,GI50,[21],> 100 µM (inactive)
same,GI50,[22],39.5 µM (inactive)
same,GI50,[23],> 100 µM (inactive)
same,GI50,[24],> 100 µM (inactive)
same,GI50,[25],> 100 µM (inactive)
same,GI50,[26],1.33 µM (inactive)
same,GI50,[27],> 100 µM (inactive)
same,GI50,[28],> 100 µM (inactive)
same,GI50,[29],> 100 µM (inactive)
same,GI50,[30],0.522 µM (active)
same,GI50,[31],> 100 µM (inactive)
same,GI50,[32],> 100 µM (inactive)
same,GI50,[33],> 100 µM (inactive)
same,GI50,[34],0.305 µM (active)
same,GI50,[35],0.982 µM (active)
same,GI50,[36],> 100 µM (inactive)
same,GI50,[37],0.372 µM (active)
same,GI50,[38],> 100 µM (inactive)
same,GI50,[39],> 100 µM (inactive)
same,GI50,[40],8.85 µM (inactive)
same,GI50,[41],> 100 µM (inactive)
same,GI50,[42],13.5 µM (inactive)
same,GI50,[43],> 100 µM (inactive)
same,GI50,[44],84.1 µM (inactive)
same,GI50,[45],> 100 µM (inactive)
same,GI50,[46],> 100 µM (inactive)
same,GI50,[47],> 100 µM (inactive)
same,GI50,[48],31.7 µM (inactive)
same,GI50,[49],95.9 µM (inactive)
same,GI50,[50],0.433 µM (active)
same,GI50,[51],18.5 µM (inactive)
same,GI50,[52],> 100 µM (inactive)
same,GI50,[53],> 100 µM (inactive)
same,GI50,[54],43.4 µM (inactive)
same,GI50,[55],> 100 µM (inactive)
COc1ccc2nc(-c3ccc(O)cc3)cn2c1,GI50,[1],73.1 µM (inactive)
same,GI50,[2],55.8 µM (inactive)
same,GI50,[3],> 100 µM (inactive)
same,GI50,[4],95.5 µM (inactive)
same,GI50,[5],71 µM (inactive)
same,GI50,[6],> 100 µM (inactive)
same,GI50,[7],98.6 µM (inactive)
same,GI50,[8],50.2 µM (inactive)
same,GI50,[9],48.8 µM
same,GI50,[10],42.4 µM (inactive)
same,GI50,[11],82 µM (inactive)
same,GI50,[12],> 100 µM (inactive)
same,GI50,[13],36 µM (inactive)
same,GI50,[14],51.3 µM (inactive)
same,GI50,[56],47.4 µM (inactive)
same,GI50,[16],64 µM (inactive)
same,GI50,[17],46.6 µM (inactive)
same,GI50,[18],> 100 µM (inactive)
same,GI50,[19],56.8 µM (inactive)
same,GI50,[57],10 µM (inactive)
same,GI50,[20],58.7 µM (inactive)
same,GI50,[21],54.1 µM (inactive)
same,GI50,[22],> 100 µM (inactive)
same,GI50,[23],94.8 µM (inactive)
same,GI50,[24],43.9 µM (inactive)
same,GI50,[25],48.5 µM (inactive)
same,GI50,[26],37.1 µM (inactive)
same,GI50,[27],> 100 µM (inactive)
same,GI50,[28],72.1 µM (inactive)
same,GI50,[29],86.9 µM (inactive)
same,GI50,[31],27.4 µM (inactive)
same,GI50,[58],32.2 µM (inactive)
same,GI50,[32],32 µM (inactive)
same,GI50,[33],24.7 µM (inactive)
same,GI50,[34],16.6 µM (inactive)
same,GI50,[35],71.4 µM (inactive)
same,GI50,[36],71.9 µM (inactive)
same,GI50,[37],89.9 µM (inactive)
same,GI50,[38],35 µM (inactive)
same,GI50,[39],> 100 µM (inactive)
same,GI50,[40],> 100 µM (inactive)
same,GI50,[41],85.5 µM (inactive)
same,GI50,[42],65.8 µM (inactive)
same,GI50,[43],23.3 µM (inactive)
same,GI50,[44],> 100 µM (inactive)
same,GI50,[45],44.7 µM (inactive)
same,GI50,[46],50.1 µM (inactive)
same,GI50,[47],11.7 µM (inactive)
same,GI50,[48],49.1 µM (inactive)
same,GI50,[49],18.5 µM (inactive)
same,GI50,[50],> 100 µM (inactive)
same,GI50,[51],59 µM (inactive)
same,GI50,[52],95.7 µM (inactive)
same,GI50,[53],43.5 µM (inactive)
same,GI50,[54],73.8 µM (inactive)
same,GI50,[55],23.4 µM (inactive)
